# In US20220298225A1, “METHODS AND COMPOSITIONS FOR TREATING CANCER WITH COLLAGEN BINDING DRUG CARRIERS” (The University of Chicago, priority 2019, published 2022):
# What was measured:
# B = assay: B
# Experimental: Table printed on a drawing sheet, FIG. 2A-D
# Blood plasma was collected at indicated time points. […] (B) Plasma half-lives of Dox were calculated using two-phase exponential decay: MFI (t)=Ae^−αt+Be^−βt. t½, α, fast clearance half-life; t½, β, slow clearance half-life. […] At the indicated time points, tumors were harvested, and the amount of Dox within the tumors was quantified (mean±SEM. n=5 for 2 h, n=7 for 24 h per group). […] 1 h after injection, tumors were harvested and fluorescence was analyzed by confocal microscopy. Tissues were also stained with DAPI and anti-CD31 antibody. Scale bar=100 μm. Representative images of 3 tumors, each. Two experimental replicates. Statistical analyses were done using ANOVA with Tukey's test. *p<0.05; **p<0.01; N.S.=not significant.
# MMTV-PyMT cells = assay: Cellular uptake of Dox-conjugates (confocal microscopy); assay type: cell-based, mouse; details: after 1 h of incubation, 50 μM equivalent of Dox
# Experimental: To evaluate the cellular uptake of Dox-conjugates, MMTV-PyMT cells were seeded in 96 well high content imaging plate (Corning) at 5000 cells/well and incubated overnight. […] After the incubation, cells were washed twice, treated with 75 nM of Lysotracker Deep Red and further incubated 30 min at 37° C. Cells were washed twice and observed by IX83 microscope (Olympus) with ×60 magnification. Images were processed using ImageJ software (NIH). Scale bar; 20 μm.
# [1] = mouse models; cited from earlier work
# MMTV-PyMT breast cancer [2] = assay: MMTV-PyMT murine breast cancer model, anti-tumor efficacy; assay type: in vivo, mouse; details: single i.v. injection 5 mg/kg Dox basis on day 7
# Experimental: The MMTV-PyMT murine breast cancer model was prepared as described previously (9). A total of 5×10^5 MMTV-PyMT cells suspended in 50 μL of PBS were injected subcutaneously into the mammary gland on the right side of each mouse. […] Tumors were measured with a digital caliper at indicated time points, and volumes were calculated as ellipsoids, where V=4/3×3.14×depth/2×width/2×height/2. Mice were sacrificed when tumor volume had reached over 500 mm^3 or when active ulceration was observed. For the therapeutic experiment, FVB mice originated from Charles River origin were used. […] The proportion of mice from different providers was equalized among all groups.
# MMTV-PyMT breast cancer [3] = assay: Tumor-infiltrating lymphocytes by flow cytometry in MMTV-PyMT model; assay type: in vivo, mouse; details: 7 days after treatment, 5 mg/kg
# Experimental: MMTV-PyMT model was prepared as described above. […] Mice were sacrificed on day 14. Cell suspensions were obtained from each tumor as described previously (9). Tumors were harvested and digested in Dulbecco's Modified Eagle Medium (DMEM) supplemented with 2% FBS, 2 mg/mL collagenase D and 40 μg/mL DNase I (Roche) for 30 min at 37° C. Single-cell suspensions were obtained by gently disrupting the organs through a 70 μm cell strainer. Red blood cells were lysed with ACK lysing buffer (Quality Biological). Fixable live/dead cell discrimination was performed using Fixable Viability Dye eFluor 455 (eBioscience) according to the manufacturer's instructions. Following a washing step, cells were stained with specific antibodies for 20 min on ice prior to fixation. Following antibodies were used to stain the cells: CD3 (145-2C11, BD Biosciences), CD4 (RM4-5, BD Biosciences), CD8α (53-6.7, BD Biosciences), CD45 (30-F11, BD Biosciences), and NK1.1 (PK136, BD Biosciences). All flow cytometric analyses were done using a Fortessa flow cytometer (BD Biosciences) and analyzed using FlowJo software (Tree Star).
# [4] = Toxicity profiles in tumor-free FVB mice; details: 20 mg/kg Dox basis
# Experimental: Blood samples were collected from each mouse in EDTA-coated tube by submandibular bleeding on day 3 and day 6 after injection for plasma cytokine analysis and hematological analysis. Body weight of each mouse was measured at indicated time points. On day 16, mice were sacrificed and organs were harvested. Spleens were weighed, and the other organs were used for histological analysis. Mice were sacrificed when more than 15% decrease of initial body weight was observed.
# Blood samples were analyzed using COULTER Ac⋅T 5diff CP hematology analyzer (Beckman coulter) according to the manufacturer's instructions.
# Blood plasma was collected from whole blood sample as described above and stored at −20° C. until use. Cytokine concentrations in plasma were measured using Ready-SET-Go! ELISA kits (eBioscience) and Can Get Signal solution (TOYOBO) according to manufacturer's instructions.
# Organs were fixed with 2% paraformaldehyde in PBS overnight. After embedding in paraffin, blocks were cut into 5 μm sections, followed by H&E staining.
smiles,measurement,setting,value
COc1cccc2c1C(=O)c1c(O)c3c(c(O)c1C2=O)C[C@@](O)(/C(CO)=N/NC(=O)CCCCCN1C(=O)C=CC1=O)C[C@@H]3O[C@H]1C[C@H](N)[C@H](O)[C@H](C)O1 [Aldoxorubicin],"t½, α",B,2.4 ± 0.168 min
same,"t½, β",B,22.6 ± 3.3 h
"COc1cccc2c1C(=O)c1c(O)c3c(c(O)c1C2=O)C[C@@](O)(C(=O)CO)C[C@@H]3O[C@H]1C[C@H](N)[C@H](O)[C@H](C)O1 [Dox, Doxorubicin]",intracellular localization of Dox fluorescence,MMTV-PyMT cells,"detected in cytoplasm, intracellular acidic organelles, and preferentially in the nucleus"
same,cumulative dose that irreversibly damages cardiac tissue,[1],15 mg/kg
COc1cccc2c1C(=O)c1c(O)c3c(c(O)c1C2=O)C[C@@](O)(/C(CO)=N/NC(=O)CCCCCN1C(=O)C=CC1=O)C[C@@H]3O[C@H]1C[C@H](N)[C@H](O)[C@H](C)O1 [aldoxorubicin],tumor growth,MMTV-PyMT breast cancer [2],did not
same,number of CD4+ T cells within the tumor per unit tumor mass,MMTV-PyMT breast cancer [3],not
same,number of CD8+ T cells within the tumor per unit tumor mass,MMTV-PyMT breast cancer [3],not
same,number of NK cells within the tumor per unit tumor mass,MMTV-PyMT breast cancer [3],not
same,plasma concentration of IFN-γ,[4]; day 3,increased
same,plasma concentration of IL-5,[4]; day 3,increased
same,plasma concentration of IL-6,[4]; day 3,increased
same,plasma concentration of TNF-α,[4]; day 3,increased
same,white blood cell (WBC) counts,[4]; day 3,significant decrease
same,hematocrit,[4]; day 6,significant decrease
same,hemoglobin concentration,[4]; day 6,significant decrease
same,red blood cell (RBC) counts,[4]; day 6,significant decrease
same,splenomegaly (spleen weight),[4]; day 16,induced splenomegaly
